{"source": "patent US6465526B1", "about": "“Natural mixture composed of higher primary aliphatic alcohols obtained from bee wax for the treatment of gastric and duodenal ulcers that also present antiinflamatory activity” (Laboratories Dalmer SA, priority 1994, dated 2002)", "assay_type_in_all_cases": "in vivo, Sprague Dawley rats", "key": {"[1]": {"test_system": "gastric ulcer induced by alcohol (60%) and indometacine (10 mg/kg)", "test": "gastric ulcer induced by alcohol (60%) and indometacine (10 mg/kg)", "description": "The objective of the present work is to determine if the protective effect of […]. against ulcer is dependent of prostaglandins or not. Male Sprague Dawley rats, weighting 150 to 200 g, were adapted to laboratory conditions for 7 days with water and food ad libitum, up to 48 h previous to the experiment, where food is suppressed. The animals were randomly distributed in 4 experimental groups. […]. was administered intraperitoneally in a 2% Tween 20/water suspension, cimetidine was dissolved in hot water and indomethacine in 5% sodium bicarbonate. […] […] after the animals were injected by i.p. route indomethacine was administered at 10 mg/kg by subcutaneous route. Half an hour later, was administered 60% alcohol and, an hour later, the animals were sacrificed. The stomachs were extracted, opened by the bigger curvature and measured the size of the ulcer using a 3× enlargement. Results were expressed in […]. In all cases, the comparison between the treated groups and the control one was realized using the non parametric U de Mann Whitney test."}, "acid gastric secretion": {"test_system": "acid gastric secretion", "test": "gastric acidity in the model of pilorous ligatured", "details": "4 h after pilorous ligature", "description": "The results obtained in last examples sugest an action over ulcer induced by acid compounds dependent or independent. With the objective of discard the inhibitory effect over the inhibition of the acid gastric secretion was determined the action of […]. over this acid gastric secretion in the pilorous ligature model. Female Sprague Dawley rats, weighing 150 to 200 g were adapted to laboratory conditions for 15 days with water and food ad libitum. The animals were randomly distributed in different experimental groups and food was deprived 48 h previous to the ligature. […]. was administered intraperitoneally in a 2% Tween 20/water suspension. Cimetidine was dissolved in hot water and administered by the same route as […]. […] Rats were anaesthetized with ether and an incision, in the abdominal region was done, stomachs were extracted and pilorous were ligatured with thread. […], after that, the compound was administered by i.p. route and 3 mL of saline solution were injected by subcutaneous route. Four h later, the animals were sacrificed, intact stomachs were extracted, tweezed by the esophagus. The gastric content was centrifuged at 3000 min^-1 for 10 min and, later on, the volume was measured. The acidity of the gastric juice was measured using 0.1 mol/L NaOH and phenolphtalein as indicator. The comparison between the treated groups and the control one was realized using the non parametric U de Mann Whitney test."}, "[2]": {"test_system": "pleuresy induced by carragenine", "test": "pleuresy induced by carragenine", "details": "for Exudate volume: 1 h before carragenine, 5 h", "description": "Pleuresy by carragenine: Male Sprague Dawley rats were used (200-250 g) and adapted to laboratory conditions for 15 days with water and food ad libitum and were deprived of food 12 h previous to the experiment. M.H.A.A.B.W. was administered in a 10 mg/mL acacia gum/water suspension, as well as triacontanol, while indomethacine was dissolved in 5% sodium bicarbonate.\nAll the treatments were administered using gastric gavage one hour previous to the injection of carragenine. Rats were randomly distributed in the following experimental groups: 1) control (vehicle); 2, 3 and 4) M.H.A.A.B.W. at 25, 50 and 100 mg/kg respectively; 5) triacontanol at 50 mg/kg and 6) indomethacine at 10 mg/kg.\nFor the induction of the edema, rats were anesthesized with ether and 0.3 mL of carragenine in 1% of saline solution were injected in the pleural cavity. Five hours later, the animals were sacrificed and the exudate were colected, determining its volume. The percent of inhibition of the edema is calculated using the following formula:\nInhibition (%)=1−(VT)/(VC)×100\nVT=volume of the edema of treated animals\nVC=volume of the edema of control animals"}, "cotton granule": {"test_system": "cotton granule", "test": "model of cotton granule", "details": "3 mg/kg orally, 6 days", "description": "In order to corroborate the antiinflamatory effect of the […]. are used the pleuresy induced by carragenine and the granule by cotton models, those ones that constitute established models for the evaluation of antiinflamatory drugs. Granule by cotton: Male Sprague Dawley rats, weighing 200 to 250 g, were adapted to laboratory conditions in the same way as the last experiment. […]. was administered orally in a 2% Tween 20/water suspension, while administered orally in a 5% sodium bicarbonate. […] Rats were randomly distributed in 5 experimental groups: 1) control (vehicle); 2, 3, and 4) […]. at 25, 50 and 100 mg/kg respectively and 5) indomethacine at 3 mg/kg. Rats were, previously, anaesthetized with ether, doing an incision in the dorsal region. The […] cotton pellet of 50 mg was sub-cutaneously and applied with a local […] finally the injured is closed. […] The percent of inhibition was […] taking as reference the weight of the granule formed in the control group."}, "[3]": {"details": "25 mg/kg i.p., indomethacine 10 mg/kg s.c. + 60% alcohol"}}, "note": "Marks after values point to notes of the source that are not given here."}
{"smiles": "CN/C(=N/CCSCc1nc[nH]c1C)NC#N", "note": "[Cimetidine, cimetidine]", "values": [{"measurement": "Inhibition", "setting": "[1]; [3]", "result": 71.2, "unit": "%"}, {"measurement": "Ulcer", "setting": "[1]; [3]", "result": "14.6 +/− 5.64* mm"}, {"measurement": "Acidity", "setting": "acid gastric secretion; 25 mg/kg i.p.", "result": "0,080 +/− 0,009* meq H^+/mL"}, {"measurement": "Gastric juice volume", "setting": "acid gastric secretion; 25 mg/kg i.p.", "result": "5,87 +/− 0,63* mL"}, {"measurement": "Acidity", "setting": "acid gastric secretion; 50 mg/kg i.p.", "result": "0,083 +/− 0,006** meq H^+/mL"}, {"measurement": "Gastric juice volume", "setting": "acid gastric secretion; 50 mg/kg i.p.", "result": "5,83 +/− 0,38** mL"}]}
{"smiles": "CCCCCCCCCCCCCCCCCCCCCCCCCCCCCCO", "note": "[Triacontanol, 1-triacontanol]", "values": [{"measurement": "Inhibition", "setting": "[2]; 100 mg/kg oral (maximum dose assayed)", "result": 27.4, "unit": "%"}, {"measurement": "Exudate volume", "setting": "[2]; 100 mg/kg oral", "result": "0.96 ± 0.30", "unit": "mL"}]}
{"smiles": "COc1ccc2c(c1)c(CC(=O)O)c(C)n2C(=O)c1ccc(Cl)cc1", "note": "[Indometacine, indomethacine]", "values": [{"measurement": "Ulcer", "setting": "[1]; indometacine alone (10 mg/kg s.c.), no alcohol", "result": 0, "unit": "mm"}, {"measurement": "Inhibition", "setting": "cotton granule", "result": 69.3, "unit": "%"}, {"measurement": "Weight of granule", "setting": "cotton granule", "result": "79 + 0.02 ** mg."}, {"measurement": "Inhibition", "setting": "[2]; 10 mg/kg oral", "result": 59.6, "unit": "%"}, {"measurement": "Exudate volume", "setting": "[2]; 10 mg/kg oral", "result": "0.50 ± 0.15", "unit": "mL"}]}
